In US10526402B2, “Anti-TGF-beta antibody for the treatment of fanconi anemia” (Dana-Farber Cancer Institute, Inc., priority 2015, dated 2020):

Tests used:
[1] = system: HSPCs from WT or Fancd2−/− mice; experiment: Cytotoxicity of RAD51 inhibitors in HSPCs; format: cell-based, mouse; details: B02 (10 μM) or RI-1 (1004) in vitro for five days; FIG. 8G
Experimental: (§1) (A) Experimental scheme for inhibition of TGF-β Pathway in mice. WT or Fancd2−/− mice were treated with isotype or 1D11 antibody (10 mg/kg) for 48h, and bone marrow HSCs were sorted for gene expression profile and cell cycle analysis. […] Cell cycle analysis of HSCs from WT or Fancd2−/− mice treated with isotype or 1D11 antibody for 48h is shown. Error bars represent mean±s.e.m. (n=4 mice per group). […] Homologous recombination assay was measured in U2OS cells with DR-GFP reporter after treatment with […] RI-1 and 10 μM B02. The representative of two independent experiments is presented; error bars represent mean±s.e.m. […] GM6914 (FA-A) cells or corrected GM6914+FANCA cells were treated with 1 μM MMC and 10 μM inhibitors for 6h before immunofluorescence analysis. Representative images (E) and quantification (F) of RAD51 foci are shown. […] HSPCs from WT or Fancd2−/− mice were treated with B02 (10 μM) or RI-1 ([…]) in vitro for five days and survival was determined. […] HSPCs from WT or Fancd2−/− mice were exposed to 1D11 (10 μg/mL) and RAD51 inhibitors (10 μM) for 30 min followed by exposure to acetaldehyde for 4 hrs. The cells were then washed and cultured in presence of 1D11 and RAD51 inhibitors for 7-9 days, and hematopoietic colonies were counted.

GM6914 (FA-A) cells = experiment: RAD51 foci formation by immunofluorescence; format: cell-based; details: 1 μM MMC and 10 μM inhibitors for 6h; FIG. 8E, F
Experimental: as §1
Cells were grown on coverslip for 24 hours before treated with MMC. […]

U2OS cells = experiment: Homologous recombination assay with DR-GFP reporter; format: cell-based; details: 10 μM B02, FIG. 8D
Experimental: as §1

Fancd2−/− stromal cells = experiment: Survival of stromal cells in the presence of MMC; format: cell-based, mouse; details: FIG. 1A
Experimental: (§2) For survival assays, cells were seeded at a density of 1×10^3 cells per well in 96-well plates. After 72 hours of culture in indicated concentrations of MMC or post exposure of acetaldehyde, viability was assessed using CellTiterGlo reagent (Promega). In order to assess clonogenicity, cells were seeded at a low density (500-1000 cells per well) in 6-well plates and allowed to form colonies. The cells were then fixed in methanol/20% acetic acid and stained with 1% crystal violet. Colony formation was assessed by solubilizing crystal violet stain with methanol and quantifying UV absorbance for each condition.
as §2, with “3-6 days” for “72 hours”, “Colonies were counted after” for “Colony formation was assessed by solubilizing”, “staining.” for “stain with methanol and quantifying UV absorbance for each condition.”

TGFβ pathway = experiment: Immunoblot of p-Smad2 in stromal cells; format: cell-based, mouse; details: FIG. 1A bottom panel
[2] = system: Lin− cells from WT and Fancd2−/− mice; experiment: Lin− cell growth under mTGFβ; format: cell-based, mouse; details: mTGFβ 1 ng/mL; FIG. 2B
Experimental: For mouse hematopoietic stem/progenitor cell culture, Lin^− cells were cultured in vitro in StemSpan SFEM media with 10 ng/mL SCF, 20 ng/mL IGF-2, 20 ng/mL TPO, 10 ng/mL heparin, and 10 ng/mL a-FGF. Half media was changed every three days. For human cord blood cells, CD34+ cells were isolated using CD34 microbead kit (Miltenyi Biotec). Cells were cultured in StemSpan SFEM media with 100 ng/mL hSCF, 100 ng/mL FLT3 ligand, 10 ng/mL TPO, 10 ng/mL IL-6. Cells were treated with 10 ug/mL 1D11 or 10 μM SD208.
To perform flow cytometry analysis, Lin^− cells were collected at day 2 and 5 post transduction and suspended in staining medium (PBS with 2% heat-inactivated calf serum), and incubated with PE-conjugated c-Kit and APC-conjugated Sca-1 antibodies were added to the cells for 30 min at 4° C. in the dark. Stem cell population (GFP^+Lin^−c-Kit^+Sca-1^+) was analyzed by FACS. All these antibodies were purchased from eBioscience.

Question: Which results are given for `O=c1c2ccccc2nc(/C=C/c2cccnc2)n1Cc1ccccc1` [B02]?
Answer: cytotoxicity in HSPCs (survival) [1]: do not show cytotoxicity; RAD51 foci formation (GM6914 (FA-A) cells): efficiently block RAD51 foci formation; HR efficiency (DR-GFP recombination) (U2OS cells): significantly decrease HR efficiency

Question: What does the source list for `O=C1C(Cl)=C(N2CCOCC2)C(=O)N1c1ccc(Cl)c(Cl)c1` [RI-1]?
Answer: cytotoxicity in HSPCs (survival) [1]: do not show cytotoxicity; RAD51 foci formation (GM6914 (FA-A) cells): efficiently block RAD51 foci formation; HR efficiency (DR-GFP recombination) (U2OS cells): significantly decrease HR efficiency

Question: For `Fc1ccc(Cl)cc1-c1nc(Nc2ccncc2)c2nccnc2n1` [SD208], which “MMC sensitivity / resistance (survival) of Fancd2−/− stromal cells” value (Fancd2−/− stromal cells) is on record?
Answer: restores MMC resistance

Question: And the “activation of the TGFβ pathway (p-Smad2) in murine stromal cells” value (TGFβ pathway)?
Answer: inhibition of TGFβ signaling

Question: What about the “suppressive effect of exogenous mTGFβ on Lin− cell growth” value [2] of the same compound?
Answer: rescued the inhibitory effect
